Source: publication PMC9764201, “Half-calcified calmodulin promotes basal activity and inactivation of the L-type calcium channel CaV1.2” (The Journal of Biological Chemistry, 2022)
Ends that are not written are not given here.

Tests used:
Ca2/CaM12’ = biological target: T1, Ca2/CaM12’ (Xenopus laevis, UniProt P0DP33, D21A/D23A/D25A/D57A/D59A/E32Q/E68Q/N61A); test: ITC of Ca2/CaM12’ binding to IQ peptides; settings: 27 °C; for n-value (stoichiometry) / ΔH: SD from three independent trials
T1 construct: made in house; host or cells: E. coli BL21(DE3) Codon Plus, pET11d

[1] = biological target: fluorescein-labeled CaV1.2 IQ peptide Y1657D (rat); test: fluorescence polarisation; fluorescein-labeled peptide (100 nM) titrated with apoCaM in Ca2+-free buffer: 20 mM Tris, pH 7.4, 100 mM KCl, 1 mM MgCl2, 2.0 mM EGTA

Row | Compound | binding to Ca2/CaM12’ compared to IQ^WT (Ca2/CaM12’) | n-value (stoichiometry) (Ca2/CaM12’) | ΔH (Ca2/CaM12’) | Kd [1]
1 | CC[C@H](C)[C@H](NC(=O)[C@H](CC(C)C)NC(=O)[C@H](Cc1ccccc1)NC(=O)[C@@H](NC(=O)[C@H](C)NC(=O)[C@H](Cc1ccc(O)cc1)NC(=O)[C@H](Cc1ccccc1)NC(=O)[C@H](CCCCN)NC(=O)CNC(=O)[C@@H](NC(=O)[C@@H](N)[C@@H](C)O)C(C)C)[C@@H](C)O)C(=O)N[C@@H](CCC(N)=O)C(=O)N[C@@H](CCC(=O)O)C(=O)N[C@@H](Cc1ccc(O)cc1)C(=O)N[C@@H](CC(=O)O)C(=O)N[C@@H](CCCNC(=N)N)C(=O)N[C@@H](CCCCN)C(=O)N[C@@H](Cc1ccccc1)C(=O)N[C@@H](CCCCN)C(=O)N[C@@H](CCCCN)C(=O)N[C@@H](CCCNC(=N)N)C(=O)O [IQ^F1658D] | weaker binding | 0.8 ± 0.5 | -5.9 ± 0.7 kcal/mol | –
2 | CC(C)C[C@H](NC(=O)[C@H](Cc1ccccc1)NC(=O)[C@@H](NC(=O)[C@H](C)NC(=O)[C@H](Cc1ccc(O)cc1)NC(=O)[C@H](Cc1ccccc1)NC(=O)[C@H](CCCCN)NC(=O)CNC(=O)[C@@H](NC(=O)[C@@H](N)[C@@H](C)O)C(C)C)[C@@H](C)O)C(=O)N[C@@H](C)C(=O)N[C@@H](CCC(N)=O)C(=O)N[C@@H](CCC(=O)O)C(=O)N[C@@H](Cc1ccc(O)cc1)C(=O)N[C@@H](Cc1ccccc1)C(=O)N[C@@H](CCCNC(=N)N)C(=O)N[C@@H](CCCCN)C(=O)N[C@@H](Cc1ccccc1)C(=O)N[C@@H](CCCCN)C(=O)N[C@@H](CCCCN)C(=O)N[C@@H](CCCNC(=N)N)C(=O)O [IQ^I1654A] | weaker binding | – | – | –
3 | CC[C@H](C)[C@H](NC(=O)[C@H](CC(C)C)NC(=O)[C@H](Cc1ccccc1)NC(=O)[C@@H](NC(=O)[C@H](C)NC(=O)[C@H](C)NC(=O)[C@H](Cc1ccccc1)NC(=O)[C@H](CCCCN)NC(=O)CNC(=O)[C@@H](NC(=O)[C@@H](N)[C@@H](C)O)C(C)C)[C@@H](C)O)C(=O)N[C@@H](CCC(N)=O)C(=O)N[C@@H](CCC(=O)O)C(=O)N[C@@H](Cc1ccc(O)cc1)C(=O)N[C@@H](Cc1ccccc1)C(=O)N[C@@H](CCCNC(=N)N)C(=O)N[C@@H](CCCCN)C(=O)N[C@@H](Cc1ccccc1)C(=O)N[C@@H](CCCCN)C(=O)N[C@@H](CCCCN)C(=O)N[C@@H](CCCNC(=N)N)C(=O)O [IQ^Y1649A] | weaker binding | 0.88 ± 0.25 | -9.7 ± 0.2 kcal/mol | –
4 | CC[C@H](C)[C@H](NC(=O)[C@H](CC(C)C)NC(=O)[C@H](Cc1ccccc1)NC(=O)[C@@H](NC(=O)[C@H](C)NC(=O)[C@H](Cc1ccc(O)cc1)NC(=O)[C@H](Cc1ccccc1)NC(=O)[C@H](CCCCN)NC(=O)CNC(=O)[C@@H](NC(=O)[C@@H](N)[C@@H](C)O)C(C)C)[C@@H](C)O)C(=O)N[C@@H](CCC(N)=O)C(=O)N[C@@H](CCC(=O)O)C(=O)N[C@@H](CC(=O)O)C(=O)N[C@@H](Cc1ccccc1)C(=O)N[C@@H](CCCNC(=N)N)C(=O)N[C@@H](CCCCN)C(=O)N[C@@H](Cc1ccccc1)C(=O)N[C@@H](CCCCN)C(=O)N[C@@H](CCCCN)C(=O)N[C@@H](CCCNC(=N)N)C(=O)O [IQ^Y1657D] | weaker binding | – | – | –
5 | TVGKFYATFLIQEYARKFKKR [IQ^F1658A] | – | 1.0 ± 0.25 | -9.5 ± 0.2 kcal/mol | –
6 | apoCaM (Ca2+-free calmodulin) (from UniProt P0DP33 1-149) (natural protein) | – | – | – | 60 µM
